Laboratory results published in article PMC3865801 (Journal of Medicinal Chemistry, 2013).
Entries after “also recorded” stand apart in the source; their conditions may differ.

target: T1, purified recombinant perforin (Mus musculus, UniProt P10820); assay: cell-based; type: cell-based; settings: lysis of Jurkat cells by purified recombinant perforin, 51Cr release, 0.1% BSA; average of at least three determinations
T1 sequence (P10820 21-554): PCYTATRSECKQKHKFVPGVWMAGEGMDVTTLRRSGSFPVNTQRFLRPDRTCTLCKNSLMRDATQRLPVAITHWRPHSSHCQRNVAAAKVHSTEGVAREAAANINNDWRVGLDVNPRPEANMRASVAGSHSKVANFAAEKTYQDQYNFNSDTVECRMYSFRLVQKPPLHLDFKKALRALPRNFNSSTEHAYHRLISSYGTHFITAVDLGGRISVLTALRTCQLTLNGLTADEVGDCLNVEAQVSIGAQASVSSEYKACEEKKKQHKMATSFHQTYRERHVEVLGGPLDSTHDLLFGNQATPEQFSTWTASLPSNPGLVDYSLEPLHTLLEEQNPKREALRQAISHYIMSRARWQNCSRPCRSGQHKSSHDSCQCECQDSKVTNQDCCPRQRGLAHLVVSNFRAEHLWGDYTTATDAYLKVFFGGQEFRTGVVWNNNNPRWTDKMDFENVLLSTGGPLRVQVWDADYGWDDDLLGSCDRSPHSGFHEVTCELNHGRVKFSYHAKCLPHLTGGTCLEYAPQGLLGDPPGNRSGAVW
Procedure: The ability of the compounds to inhibit the lysis of nucleated (Jurkat T lymphoma) cells in the presence of 0.1% BSA was measured by release of ^51Cr label. Jurkat target cells were labeled by incubation in medium with 100 μCi ^51Cr for 1 h. The cells were then washed three times to remove unincorporated isotope and resuspended at 1 × 10^5 cells per milliliter in RPMI buffer supplemented with 0.1% BSA. […] Each data point was performed in triplicate, and an IC50 was calculated from the range of concentrations described above.

Question: How did the “inhibition of Jurkat cell lysis, IC50” value turn out when O=C1NC(=S)N/C1=C/c1ccc(-c2ccccc2)s1 [compound 43] was run?
Answer: The value was “no detectable activity”.

Question: How did the “inhibition of Jurkat cell lysis, IC50” value turn out when O=C1NC(=S)N/C1=C/c1ccc(-c2ccc3c(c2)CN(CCN2CCOCC2)C3=O)s1 [compound 130, (E,Z)-2-(2-Morpholinoethyl)-5-(5-((5-oxo-2-thioxoimidazolidin-4-ylidene)methyl)thiophen-2-yl)isoindolin-1-one] was run?
Answer: The value was “not reproducible; also recorded: variable”.

same assay, conditions: lysis of Jurkat cells by purified recombinant perforin, 51Cr release, 0.1% BSA; average of at least three determinations; read-out: inhibition of Jurkat cell lysis, IC50

Question: Which IC50 does the source give for O=C1NC(=S)N/C1=C/c1ccc(-c2ccccc2)s1 [compound 43] here?
Answer: The IC50 was over 20 µM.

Question: O=C1NC(=S)N/C1=C/c1ccc(-c2ccccc2Cl)s1 [compound 44] was tested. Which IC50 did it give?
Answer: The IC50 was over 20 µM.

Question: O=C1NC(=S)N/C1=C/c1ccc(-c2cccc(Cl)c2)s1 [compound 45] was tested. Which IC50 did it give?
Answer: Its IC50 is 7.19 µM.

Question: O=C1NC(=S)N/C1=C/c1ccc(-c2ccc(Cl)cc2)s1 [compound 46] was tested. Which IC50 did it give?
Answer: The IC50 was 5.22 µM.

Question: O=C1NC(=S)N/C1=C/c1ccc(-c2cccc(F)c2)s1 [compound 47] was tested. Which IC50 did it give?
Answer: Its IC50 is 10.8 µM.

Question: With O=C1NC(=S)N/C1=C/c1ccc(-c2ccc(F)cc2)s1 [compound 48] as the molecule, how does the IC50 read?
Answer: The IC50 was 6.69 µM.

Question: How did the IC50 turn out when O=C1NC(=S)N/C1=C/c1ccc(-c2ccc(F)c(F)c2)s1 [compound 49] was run?
Answer: The IC50 was 4.59 µM.

Question: How did the IC50 turn out when O=C1NC(=S)N/C1=C/c1ccc(-c2cccc(C(F)(F)F)c2)s1 [compound 50] was run?
Answer: The IC50 was 5.66 µM.

Question: Which IC50 does the source give for O=C1NC(=S)N/C1=C/c1ccc(-c2ccc(C(F)(F)F)cc2)s1 [compound 51] here?
Answer: Its IC50 is 4.66 µM.

Question: How did the IC50 turn out when N#Cc1cccc(-c2ccc(/C=C3/NC(=S)NC3=O)s2)c1 [compound 52] was run?
Answer: Its IC50 is 9.68 µM.

Question: With O=C1NC(=S)N/C1=C/c1ccc(-c2ccc(O)cc2)s1 [compound 53] as the molecule, how does the IC50 read?
Answer: Its IC50 is 7.72 µM.

Question: With O=C1NC(=S)N/C1=C/c1ccc(-c2ccc(Cl)c(C(F)(F)F)c2)s1 [compound 54] as the molecule, how does the IC50 read?
Answer: The IC50 was 3.09 µM.

Question: With O=C1NC(=S)N/C1=C/c1ccc(-c2ccc(Br)cc2)s1 [compound 55] as the molecule, how does the IC50 read?
Answer: Its IC50 is 1.69 µM.

Question: For CSc1ccc(-c2ccc(/C=C3/NC(=S)NC3=O)s2)cc1 [compound 56], which IC50 is on record?
Answer: The IC50 was 1.15 µM.

Question: For CC(=O)c1ccc(-c2ccc(/C=C3/NC(=S)NC3=O)s2)cc1 [compound 57], which IC50 is on record?
Answer: Its IC50 is 1.67 µM.

Question: Which IC50 does the source give for CC(=O)OCc1ccc(-c2ccc(/C=C3/NC(=S)NC3=O)s2)cc1 [compound 58, (E,Z)-4-(5-((5-Oxo-2-thioxoimidazolidin-4-ylidene)methyl)thiophen-2-yl)benzyl Acetate] here?
Answer: Its IC50 is 3.04 µM.

Question: Which IC50 does the source give for COC(=O)c1ccc(-c2ccc(/C=C3/NC(=S)NC3=O)s2)cc1 [compound 59] here?
Answer: The IC50 was 1.62 µM.

Question: How did the IC50 turn out when NC(=O)c1cccc(-c2ccc(/C=C3/NC(=S)NC3=O)s2)c1 [compound 60] was run?
Answer: The IC50 was 0.79 µM.

Question: NC(=O)c1ccc(-c2ccc(/C=C3/NC(=S)NC3=O)s2)cc1 [compound 61] was tested. Which IC50 did it give?
Answer: Its IC50 is 1.56 µM.

Question: Which IC50 does the source give for COC(=O)c1ccc(-c2ccc(/C=C3/NC(=S)NC3=O)s2)cc1C [compound 62] here?
Answer: Its IC50 is 3.03 µM.

Question: Which IC50 does the source give for CS(=O)(=O)c1ccc(-c2ccc(/C=C3/NC(=S)NC3=O)s2)cc1 [compound 63] here?
Answer: The IC50 was 13.8 µM.

Question: How did the IC50 turn out when CS(=O)(=O)Nc1ccc(-c2ccc(/C=C3/NC(=S)NC3=O)s2)cc1 [compound 64] was run?
Answer: Its IC50 is 7.7 µM.

Question: Which IC50 does the source give for O=C1NC(=S)N/C1=C/c1ccc(-c2cccnc2)s1 [compound 65] here?
Answer: The IC50 was 12.9 µM.

Question: How did the IC50 turn out when O=C1NC(=S)N/C1=C/c1ccc(-c2ccncc2)s1 [compound 66] was run?
Answer: Its IC50 is 10.1 µM.

Question: With CNC(=O)c1ccc(-c2ccc(/C=C3/NC(=S)NC3=O)s2)cc1 [compound 67, (E,Z)-N-Methyl-4-(5-((5-oxo-2-thioxoimidazolidin-4-ylidene)methyl)thiophen-2-yl)benzamide] as the molecule, how does the IC50 read?
Answer: The IC50 was 4.53 µM.

Question: For CN(C)C(=O)c1ccc(-c2ccc(/C=C3/NC(=S)NC3=O)s2)cc1 [compound 68], which IC50 is on record?
Answer: Its IC50 is 6.93 µM.

Question: With O=C1NC(=S)N/C1=C/c1ccc(-c2ccc(C(=O)N3CCOCC3)cc2)s1 [compound 69] as the molecule, how does the IC50 read?
Answer: The IC50 was over 20 µM.

Question: Which IC50 does the source give for O=C1NC(=S)N/C1=C/c1ccc(-c2ccc(C(=O)NCCN3CCOCC3)cc2)s1 [compound 70] here?
Answer: The IC50 was over 20 µM.

Question: How did the IC50 turn out when O=C1NC(=S)N/C1=C/c1ccc(-c2ccc(C(=O)NCCCN3CCOCC3)cc2)s1 [compound 71] was run?
Answer: The IC50 was 8.13 µM.

Question: How did the IC50 turn out when O=C1NC(=S)N/C1=C/c1ccc(-c2ccc(C(=O)NCCO)cc2)s1 [compound 72] was run?
Answer: The IC50 was 3.64 µM.

Question: Which IC50 does the source give for O=C1NC(=S)N/C1=C/c1ccc(-c2ccc(C(=O)NCCCO)cc2)s1 [compound 73] here?
Answer: Its IC50 is 4.35 µM.

Question: CC(O)CNC(=O)c1ccc(-c2ccc(/C=C3/NC(=S)NC3=O)s2)cc1 (centres unmarked) [compound 74] was tested. Which IC50 did it give?
Answer: Its IC50 is 6.5 µM.

Question: Which IC50 does the source give for O=C1NC(=S)N/C1=C/c1ccc(-c2ccc(C(=O)NCC(O)CO)cc2)s1 (centres unmarked) [compound 75] here?
Answer: The IC50 was 2.44 µM.

Question: For CCN1Cc2cc(-c3ccc(/C=C4/NC(=S)NC4=O)s3)ccc2C1=O [compound 120], which IC50 is on record?
Answer: The IC50 was 0.6 µM.

Question: With CCCN1Cc2cc(-c3ccc(/C=C4/NC(=S)NC4=O)s3)ccc2C1=O [compound 121] as the molecule, how does the IC50 read?
Answer: The IC50 was 1.52 µM.

Question: For CCCCN1Cc2cc(-c3ccc(/C=C4/NC(=S)NC4=O)s3)ccc2C1=O [compound 122], which IC50 is on record?
Answer: Its IC50 is 1.18 µM.

Question: CC(C)N1Cc2cc(-c3ccc(/C=C4/NC(=S)NC4=O)s3)ccc2C1=O [compound 123] was tested. Which IC50 did it give?
Answer: The IC50 was 4.42 µM.

Question: For CC(=O)OCCN1Cc2cc(-c3ccc(/C=C4/NC(=S)NC4=O)s3)ccc2C1=O [compound 124, (E,Z)-2-(1-Oxo-5-(5-((5-oxo-2-thioxoimidazolidin-4-ylidene)methyl)thiophen-2-yl)isoindolin-2-yl)ethyl Acetate], which IC50 is on record?
Answer: Its IC50 is 1.17 µM.

Question: O=C1NC(=S)N/C1=C/c1ccc(-c2ccc3c(c2)CN(CC(O)CO)C3=O)s1 (centres unmarked) [compound 127] was tested. Which IC50 did it give?
Answer: The IC50 was 1.26 µM.

Question: With CC(=O)N1Cc2cc(-c3ccc(/C=C4/NC(=S)NC4=O)s3)ccc2C1=O [compound 128] as the molecule, how does the IC50 read?
Answer: The IC50 was 0.93 µM.

Question: CN(C)CCCN1Cc2cc(-c3ccc(/C=C4/NC(=S)NC4=O)s3)ccc2C1=O [compound 131, (E,Z)-2-(3-(Dimethylamino)propyl)-5-(5-((5-oxo-2-thioxoimidazolidin-4-ylidene)methyl)thiophen-2-yl)isoindolin-1-one] was tested. Which IC50 did it give?
Answer: Its IC50 is over 20 µM.

Question: O=C1NC(=S)N/C1=C/c1ccc(-c2ccc3c(c2)CN(CCCN2CCCCC2)C3=O)s1 [compound 132] was tested. Which IC50 did it give?
Answer: Its IC50 is 11.8 µM.

Question: For CN1CCN(CCCN2Cc3cc(-c4ccc(/C=C5/NC(=S)NC5=O)s4)ccc3C2=O)CC1 [compound 133], which IC50 is on record?
Answer: The IC50 was over 20 µM.

Question: For O=C1NC(=S)N/C1=C/c1ccc(-c2ccc3c(c2)CN(CCCN2CCCC2)C3=O)s1 [compound 134], which IC50 is on record?
Answer: The IC50 was 8.93 µM.

Question: O=C1NC(=S)N/C1=C/c1ccc(-c2ccc3c(c2)C(=O)NC3)s1 [compound 165] was tested. Which IC50 did it give?
Answer: The IC50 was 1.38 µM.

Question: CN1Cc2ccc(-c3ccc(/C=C4/NC(=S)NC4=O)s3)cc2C1=O [compound 166, (E,Z)-2-Methyl-6-(5-((5-oxo-2-thioxoimidazolidin-4-ylidene)methyl)thiophen-2-yl)isoindolin-1-one] was tested. Which IC50 did it give?
Answer: The IC50 was 1.89 µM.

Question: CN1CCc2cc(-c3ccc(/C=C4/NC(=S)NC4=O)s3)ccc2C1=O [compound 169] was tested. Which IC50 did it give?
Answer: Its IC50 is 2.33 µM.

Question: CN1CCc2ccc(-c3ccc(/C=C4/NC(=S)NC4=O)s3)cc2C1=O [compound 170] was tested. Which IC50 did it give?
Answer: The IC50 was 4.76 µM.

Question: Which IC50 does the source give for CC(=O)c1cn(C)c2ccc(-c3ccc(/C=C4\NC(=S)NC4=O)s3)cc12 [compound 178] here?
Answer: The IC50 was 5.3 µM.

Question: Which IC50 does the source give for O=C1NC(=S)N/C1=C\c1cc(-c2ccc3c(c2)CNC3=O)cs1 [compound 204] here?
Answer: The IC50 was 3 µM.

Question: Which IC50 does the source give for O=C1NC(=S)N/C1=C/c1ccc(-c2ccc3c(c2)CNC3=O)cc1 [compound 205] here?
Answer: The IC50 was 5.55 µM.

Question: O=C1NC(=S)N/C1=C\c1cccc(-c2ccc3c(c2)CNC3=O)c1 [compound 206] was tested. Which IC50 did it give?
Answer: The IC50 was 3.44 µM.

Question: For O=C1NC(=S)N/C1=C/c1cc2ccc(-c3ccc4c(c3)CNC4=O)cc2[nH]1 [compound 208], which IC50 is on record?
Answer: The IC50 was 1.58 µM.

Question: Which IC50 does the source give for O=C1NC(=S)N/C1=C/c1cc2cc(-c3ccc4c(c3)CNC4=O)ccc2[nH]1 [compound 209] here?
Answer: The IC50 was 2.5 µM.

Question: How did the IC50 turn out when O=C1NC(=S)N/C1=C/c1cc2ccc(-c3ccc4c(c3)CCNC4=O)cc2[nH]1 [compound 210] was run?
Answer: Its IC50 is 1.66 µM.

Question: How did the IC50 turn out when O=C1NC(=S)N/C1=C/c1cc2cc(-c3ccc4c(c3)CCNC4=O)ccc2[nH]1 [compound 211] was run?
Answer: The IC50 was 1.45 µM.

Question: How did the IC50 turn out when O=C1NC(=S)/C(=C/c2ccc3cc(-c4ccc5c(c4)CCNC5=O)ccc3n2)N1 [compound 212] was run?
Answer: The IC50 was 2.55 µM.
